# Values of other authors as cited in patent US8142802B2, “Insecticidal composition with enhanced synergistic activity” (priority 2003, dated 2012).
# Conditions: at room temperature
smiles,measurement,value
COP(=O)(NC(C)=O)SC (stereo not shown) [Acephate],solubility in acetone,> 100 mg/mL
same,solubility in aromatic solvents,< 50 mg/mL
same,solubility in ethanol,> 100 mg/mL
same,solubility in water,about 650 g/l
